Reference: patent US9447086B2, “6-amino acid heteroaryldihydropyrimidines for the treatment and prophylaxis of hepatitis B virus infection” (priority 2012, dated 2016)
In brackets after ≈: the same amount, converted by molar mass.

Key:
[1] = Metabolic stability study in human microsome; format: in vitro ADME
Protocol: Human Microsomes were preincubated with test compound for 10 min at 37° C. in 100 mM phosphate buffer, pH 7.4. The reactions were initiated by adding NADPH or NADPH regenerating system to give a final incubation volume of 400 μL. For NADPH system, the final incubations contained 1 μM test compound, 0.5 mg/mL liver microsomal protein, 1 mM NADPH in 100 mM phosphate buffer, pH 7.4. For the NADPH regenerating system, the final incubations contained 1 μM test compound, 0.5 mg/mL liver microsomal protein, 3 mM glucose 6-phosphate, 1 mM NADP, 3 mM MgCl2 and 0.05 mg/mL glucose 6-phosphate dehydrogenase in 100 mM phosphate buffer, pH 7.4. After incubation times of 0, 3, 6, 9, 15 and 30 minutes at 37° C., 50 μL samples was removed and transferred to 150 μL methanol solution which was maintained at 4° C. containing 2 μM tolbutamide (internal standard) to terminating the reaction. Following precipitation and centrifugation, the amount of compound remaining in the samples were determined by LC-MS/MS. Controls of no NADPH or NADPH regenerating system at zero and 30 min were also prepared and analyzed.

[2] = Lyophilisation solubility assay (Lysa); format: physicochemical; details: phosphate buffer, pH 6.5, aqueous buffer, thermodynamic from solid
Protocol: The aqueous solubility is an important physico-chemical property that plays a significant role in various physical and biological processes. It is desirable to have good solubility which enables good permeability and gastric and intestinal absorption, linear dose proportionality, less PK variability, and easy formulation for PD/PK studies. […] Lyophilisation solubility assay (Lysa) is a well adopted high throughput assay to measure compound solubility in industry.
Samples are prepared in duplicate from 10 mM DMSO stock solutions. After evaporation of DMSO with a centrifugal vacuum evaporator, the residue is solved in 0.05 M phosphate buffer (pH 6.5), stirred for one hour and shaken for two hours. After one night, the solutions is filtered using a microtiter filter plate and the filtrate and its 1/10 dilution are then analyzed by direct UV measurement or by HPLC-UV. […] The results are in μg/mL.

In the case of `COC(=O)C1=C(CN2CC(F)(F)C[C@H]2C(=O)O)NC(c2nccs2)=NC1c1ccc(F)cc1Cl` (stereo partly drawn) [Example 1, 6-((S)-2-Carboxy-4,4-difluoro-pyrrolidin-1-ylmethyl)-4-(2-chloro-4-fluoro-phenyl)-2-thiazol-2-yl-1,4-dihydro-pyrimidine-5-carboxylic acid methyl ester], the “Human Hepatic Clearance” value [1] was 7.51 mL/min/kg.

For `COC(=O)C1=C(CN2CC(F)(F)CCC2C(=O)O)NC(c2nccs2)=N[C@H]1c1ccc(F)cc1Cl` (stereo partly drawn) [Example 7, (R)-6-(2-Carboxy-5,5-difluoro-piperidin-1-ylmethyl)-4-(2-chloro-4-fluoro-phenyl)-2-thiazol-2-yl-1,4-dihydro-pyrimidine-5-carboxylic acid methyl ester], the “Human Hepatic Clearance” value [1] was 6.12 mL/min/kg and the solubility thermodynamic [2] was 398 µg/mL (≈ 752 µM).

For `COC(=O)C1=C(CN2CC(F)(F)C[C@H]2C(=O)O)NC(c2cc(C)ccn2)=N[C@H]1c1ccc(F)cc1Cl` [Example 8, (R)-6-((S)-2-Carboxy-4,4-difluoro-pyrrolidin-1-ylmethyl)-4-(2-chloro-4-fluoro-phenyl)-2-(4-methyl-pyridin-2-yl)-1,4-dihydro-pyrimidine-5-carboxylic acid methyl ester], the “Human Hepatic Clearance” value [1] was 6.33 mL/min/kg and the solubility thermodynamic [2] was over 620 µg/mL.

For `COC(=O)C1=C(CN2CCOC[C@H]2C(=O)O)NC(c2cc(C)ccn2)=N[C@H]1c1ccc(F)cc1Cl` [Example 9, (S)-4-[(R)-6-(2-Chloro-4-fluoro-phenyl)-5-methoxycarbonyl-2-(4-methyl-pyridin-2-yl)-3,6-dihydro-pyrimidin-4-ylmethyl]-morpholine-3-carboxylic acid], the “Human Hepatic Clearance” value [1] was 10.07 mL/min/kg and the solubility thermodynamic [2] was over 645 µg/mL.

With `COC(=O)C1=C(CN2CCOC[C@H]2C(=O)O)NC(c2nccn2C)=NC1c1ccc(F)cc1Cl` (stereo partly drawn) [Example 13, (S)-4-[6-(2-Chloro-4-fluoro-phenyl)-5-methoxycarbonyl-2-(1-methyl-1H-imidazol-2-yl)-3,6-dihydro-pyrimidin-4-ylmethyl]-morpholine-3-carboxylic acid] the “Human Hepatic Clearance” value [1] was 2.33 mL/min/kg and the solubility thermodynamic [2] was 594 µg/mL (≈ 1210 µM).

In the case of `COC(=O)C1=C(CN2CC(F)(F)C[C@H]2C(=O)O)NC(c2nc(C)co2)=N[C@H]1c1ccc(F)cc1Cl` [Example 15, (R)-6-((S)-2-Carboxy-4,4-difluoro-pyrrolidin-1-ylmethyl)-4-(2-chloro-4-fluoro-phenyl)-2-(4-methyl-oxazol-2-yl)-1,4-dihydro-pyrimidine-5-carboxylic acid methyl ester], the “Human Hepatic Clearance” value [1] was 3.53 mL/min/kg and the solubility thermodynamic [2] was over 627 µg/mL.

In the case of `COC(=O)C1=C(CN2CC(F)(F)C[C@H]2C(=O)O)NC(c2nccs2)=N[C@H]1c1cc(F)c(F)cc1Cl` [Example 18, (R)-6-((S)-2-Carboxy-4,4-difluoro-pyrrolidin-1-ylmethyl)-4-(2-chloro-4,5-difluoro-phenyl)-2-thiazol-2-yl-1,4-dihydro-pyrimidine-5-carboxylic acid methyl ester], the “Human Hepatic Clearance” value [1] was 3.38 mL/min/kg and the solubility thermodynamic [2] was over 659 µg/mL.

In the case of `COC(=O)C1=C(CN2CC(F)(F)C[C@H]2C(=O)O)NC(c2nc(C)cn2C)=NC1c1ccc(F)cc1Cl` (stereo partly drawn) [Example 20, 6-((S)-2-Carboxy-4,4-difluoro-pyrrolidin-1-ylmethyl)-4-(2-chloro-4-fluoro-phenyl)-2-(1,4-dimethyl-1H-imidazol-2-yl)-1,4-dihydro-pyrimidine-5-carboxylic acid methyl ester], the “Human Hepatic Clearance” value [1] was 10.74 mL/min/kg and the solubility thermodynamic [2] was 683 µg/mL (≈ 1300 µM).

In the case of `COC(=O)C1=C(CN2CCOC[C@H]2C(=O)O)NC(c2nccs2)=N[C@H]1c1cc(F)c(F)cc1Cl` [Example 21, (S)-4-[(R)-6-(2-Chloro-4,5-difluoro-phenyl)-5-methoxycarbonyl-2-thiazol-2-yl-3,6-dihydro-pyrimidin-4-ylmethyl]-morpholine-3-carboxylic acid], the “Human Hepatic Clearance” value [1] was 3.08 mL/min/kg and the solubility thermodynamic [2] was 828 µg/mL (≈ 1610 µM).

With `COC(=O)C1=C(CN2CC(F)(F)C[C@H]2C(=O)O)NC(c2ncccc2F)=N[C@H]1c1ccc(F)cc1Cl` [Example 22, (R)-6-((S)-2-Carboxy-4,4-difluoro-pyrrolidin-1-ylmethyl)-4-(2-chloro-4-fluoro-phenyl)-2-(3-fluoro-pyridin-2-yl)-1,4-dihydro-pyrimidine-5-carboxylic acid methyl ester] the “Human Hepatic Clearance” value [1] was 4.82 mL/min/kg and the solubility thermodynamic [2] was 630 µg/mL (≈ 1200 µM).

For `CCOC(=O)C1=C(CN2CC(F)(F)C[C@H]2C(=O)O)NC(c2nccs2)=NC1c1ccc(F)cc1Cl` (stereo partly drawn) [Example 26, 6-((S)-2-Carboxy-4,4-difluoro-pyrrolidin-1-ylmethyl)-4-(2-chloro-4-fluoro-phenyl)-2-thiazol-2-yl-1,4-dihydro-pyrimidine-5-carboxylic acid ethyl ester], the “Human Hepatic Clearance” value [1] was 10.02 mL/min/kg and the solubility thermodynamic [2] was 668 µg/mL (≈ 1260 µM).

In the case of `COC(=O)C1=C(CN2CC(F)(F)C[C@H]2C(=O)O)NC(c2cc(C)cs2)=N[C@H]1c1ccc(F)cc1Cl` [Example 27, (R)-6-((S)-2-Carboxy-4,4-difluoro-pyrrolidin-1-ylmethyl)-4-(2-chloro-4-fluoro-phenyl)-2-(4-methyl-thiophen-2-yl)-1,4-dihydro-pyrimidine-5-carboxylic acid methyl ester], the “Human Hepatic Clearance” value [1] was 8.79 mL/min/kg.

With `COC(=O)C1=C(CN2CC(F)(F)C[C@H]2C(=O)O)NC(c2nccs2)=N[C@H]1c1ccc(C#N)cc1Cl` [Example 30, (R)-6-((S)-2-Carboxy-4,4-difluoro-pyrrolidin-1-ylmethyl)-4-(2-chloro-4-cyano-phenyl)-2-thiazol-2-yl-1,4-dihydro-pyrimidine-5-carboxylic acid methyl ester] the “Human Hepatic Clearance” value [1] was 6.56 mL/min/kg and the solubility thermodynamic [2] was 667 µg/mL (≈ 1280 µM).

In the case of `CCOC(=O)C1=C(CN2CCOC[C@H]2C(=O)O)NC(c2cccc(C)n2)=N[C@H]1c1ccc(F)cc1Cl` [Example 37, (S)-4-[(R)-6-(2-Chloro-4-fluoro-phenyl)-5-ethoxycarbonyl-2-(6-methyl-pyridin-2-yl)-3,6-dihydro-pyrimidin-4-ylmethyl]-morpholine-3-carboxylic acid], the “Human Hepatic Clearance” value [1] was 7 mL/min/kg and the solubility thermodynamic [2] was over 593 µg/mL.

For `CCOC(=O)C1=C(CN2CC(F)(F)C[C@H]2C(=O)O)NC(c2nc(C(F)(F)F)cn2C)=N[C@H]1c1ccc(F)cc1Cl` [Example 40, (R)-6-((S)-2-Carboxy-4,4-difluoro-pyrrolidin-1-ylmethyl)-4-(2-chloro-4-fluoro-phenyl)-2-(1-methyl-4-trifluoromethyl-1H-imidazol-2-yl)-1,4-dihydro-pyrimidine-5-carboxylic acid ethyl ester], the “Human Hepatic Clearance” value [1] was 8.45 mL/min/kg and the solubility thermodynamic [2] was 409 µg/mL (≈ 689 µM).

For `CC(C)(C)OC(=O)C1=C(CN2CCOC[C@H]2C(=O)O)NC(c2nccs2)=N[C@H]1c1ccc(F)cc1Cl` [Example 105, (S)-4-[5-tert-Butoxycarbonyl-6-(2-chloro-4-fluoro-phenyl)-2-thiazol-2-yl-3,6-dihydro-pyrimidin-4-ylmethyl]-morpholine-3-carboxylic acid], the “Human Hepatic Clearance” value [1] was 8.13 mL/min/kg.

In the case of `CCOC(=O)C1=C(CN2CCOC[C@H]2C(=O)O)NC(c2nccs2)=N[C@H]1c1ccc(Cl)cc1` [Example 126, (3S)-4-[[(4S)-4-(4-Chlorophenyl)-5-ethoxycarbonyl-2-(1,3-thiazol-2-yl)-1,4-dihydropyrimidin-6-yl]methyl]morpholine-3 carboxylic acid], the “Human Hepatic Clearance” value [1] was 0 mL/min/kg.
